Measured values from US20120258960A1, “NOVEL MULTIFUNCTIONAL PEPTIDASE INHIBITORS, ESPECIALLY FOR MEDICAL USE” (IMTM GMBH, priority 2009, published 2012).

test system: Sprague-Dawley rats; assay: Infarct volume after transient focal cerebral ischemia (endothelin 1-induced middle cerebral artery occlusion, eMCAO); assay type: in vivo; conditions: cortex, 7 days after eMCAO, % of vehicle control (100%), mean ± S.E.M.; 2 μl of 10 mmol/l intracerebroventricularly during ischemia, 6 and 24 h after reperfusion
Protocol: Studies were performed on male Sprague-Dawley rats (250 to 280 g) obtained from Harlan Winkelmann (Borchen, Germany). The animals were maintained under constant environmental conditions with ambient temperature of 21±2° C. and relative humidity of 40%. They were housed with a 12-h light-dark cycle and given food and water ad libitum.
For stock solution of the compounds, a compound determined for use in the study (25 mmol) was dissolved in dimethyl sulfoxide (DMSO, SigmaAldrich, Germany) and diluted with 0.1 M phosphate buffer saline (PBS, pH 7.4) to a final volume of 10 mmol/l. 2 μl of a 10 mmol/l test compound PBS/DMSO solution was administered intra-cerebroventricularly at different time points after the induction of transient focal cerebral ischemia. If not otherwise stated, all other chemicals were of highest available purity.
The procedure for the induction of transient focal cerebral ischemia by occlusion of the middle cerebral artery via microinjection of endothelin 1 adjacent to the middle cerebral artery was modified from that published previously by Sharkey and Butcher, 1995. Anesthesia was induced with halothane in a mixture of nitrous oxide/oxygen (70:30, v/v) and maintained with 2 to 3% halothane during the following procedures. Rats were placed in a Kopf stereotaxic frame and further anesthetized via nose cone. For the induction of focal cerebral ischemia, a burr hole was drilled (1 mm diameter) into the skull (coordinates: anterior 0.90 mm from bregma, lateral 5.2 mm to satura sagittalis), and the dura was carefully opened. A 29-gauge cannula was lowered 7.5 mm below the dura according to the rat brain atlas of Paxinos and Watson (31). To induce occlusion of the middle cerebral artery, rats received an injection of […] of endothelin 1 (ED-1, Sigma-Aldrich) in 3 μl of 0.1 M phosphate-buffered saline, pH 7.4, over a time period of 5 min. After a further 5 min, the cannula was slowly withdrawn.
For intracerebroventricular application of the compounds selected, a second burr hole was drilled into the skull (coordinates: posterior 0.80 mm from bregma, lateral 1.5 mm to satura sagittalis), and a second 29-gauge cannula was lowered 4.5 mm below the dura. Intracerebroventricular applications of selected compounds (2 μl of a 10 mmol/l PBS/DMSO solution, pH 7.4) were performed during ischemia, 6 and 24 h after reperfusion.
After a survival time of 7 days after endothelin-induced middle cerebral artery occusion (eMCAO), animals were anesthetized by an intraperitonial injection of pentobarbital and perfusion-fixed transcardially with saline, followed by 4% paraformaldehyde in 0.1 M phosphate buffer saline, pH 7.4. Brains were then removed carefully, post-fixed in the same fixative for 2 h, and placed in a rodent brain matrix (rat, Activational Systems Inc., Scientific Instrumentation). 1-mm coronal brain slices were cut with a razor blade at 14 predetermined anterior-posterior levels. After cryoprotection in 30% sucrose, slices were rapidly frozen in isopentane and stored at −80° C. Four to five cryostat sections (30 μm) from each brain slice were cut in a cryo microtome and stained with toluidine blue.
The extent of cortical damage following ischemic injury was documented with microphotographic images from the Nissl-stained slices showing the anterior-posterior level according to the brain atlas of Paxinos and Watson (31). The volume of cortical infarct was determined by an operator blinded to the group composition.
The extent of the infarct area at each level was calculated by integrating of the area of damage at each stereotactic level and the distances between the various levels. Using a light microscope (Nikon, Eclipse TE 3000) equipped with a 4× objective, the image analysis was performed with a computer-assisted image analysis system (Lucia software, Version 4.2.1).
The data were statistically analyzed by non-paired Student's t tests. […]

In order of rising “Infarct Volume (%)” value:
1. CCCCCCCCCCCCCCCC(=O)OC(C(=O)NCC(C)(C)CNC(=O)CC(N)Cc1cc(F)ccc1F)C(N)Cc1ccccc1 (stereo not shown) [drawing 288]  58.6 ± 19.7 %
2. CC(C)(CNCC(N)Cc1cc(F)ccc1F)CNC(=O)C(O)C(N)Cc1ccccc1 (stereo not shown) [drawing 292]  59.9 ± 16.1 %
3. CCCCCCCCCCCCCC(=O)NC(CC(=O)NCC(C)(C)CNC(=O)C(O)C(Cc1ccccc1)NC(=O)CCCCCCCCCCCCC)Cc1cc(F)ccc1F (stereo not shown) [drawing 289]  60.7 ± 17.1 %
4. NC(CC(=O)NC1CCCC(NC(=O)C(O)C(N)Cc2ccccc2)C1)Cc1cc(F)ccc1F (stereo not shown) [drawing 291]  64.2 ± 14.6 %
5. CC(C)(NC(=O)CC(N)Cc1ccccc1)C(C)(C)NC(=O)C(O)C(N)Cc1ccccc1 (stereo not shown) [drawing 286]  70.7 ± 6.1 %
6. NC(CC(=O)NCCCCNC(=O)C(O)C(N)Cc1ccccc1)Cc1cc(F)ccc1F (stereo not shown) [drawing 287]  73.5 ± 5.7 %
7. CCCCCCCCCCCCCCCC(=O)NC(CC(=O)NCC(C)(C)CNC(=O)C(O)C(Cc1ccccc1)NC(=O)CCCCCCCCCCCCCCC)Cc1cc(F)ccc1F (stereo not shown) [drawing 290]  75.6 ± 16.6%
